In US10888099B2, “Granulation of a Stevia sweetener” (PureCircle Sdn Bhd, priority 2009, dated 2021):
Read-outs that look alike come from different tables or passages of the source. Where a SMILES comes first, the peptide text is derived from it.

What was measured:
[1] = cited from earlier work
[2] = cited from earlier work; for solubility: known Rebaudioside A forms, g soluble in 100 g solvent
[3] = standard sweetening power, Saccharose = 1; cited from earlier work
[4] = type: physicochemical
Protocol: Hereinafter, unless specified otherwise, the solubility of a material is determined in reverse osmosis water at room temperature. […] The obtained powder was loaded into a 1000 L rotary vacuum dryer and dried at 105° C. at 10 mbar pressure for 3 hours. After 3 hours, preheated nitrogen at 100° C. was introduced into the vacuum chamber till ambient pressure was reached. Upon reaching ambient pressure, the vacuum dryer was connected to a vent and the nitrogen flow was continued at 100 L/min for a 4-hour time period. […] A sample of the powder was withdrawn from the dryer and the solubility tested in deionized water at room temperature.

In the case of C=C1C[C@@]23CC[C@H]4[C@@](C)(CCC[C@@]4(C)C(=O)O[C@@H]4O[C@H](CO)[C@@H](O)[C@H](O)[C@H]4O)[C@@H]2CC[C@]1(O[C@@H]1O[C@H](CO)[C@@H](O)[C@H](O[C@@H]2O[C@H](CO)[C@@H](O)[C@H](O)[C@H]2O)[C@H]1O[C@@H]1O[C@H](CO)[C@@H](O)[C@H](O)[C@H]1O)C3 [Form 4, Rebaudioside A], the “Rate of dissolution in H2O at 25° C.” value ([1]; grade in words) is given as “High”, the “Rate of dissolution in H2O at 25° C.” value ([1]; in 5 minutes) is given as “(>35% in” and the solubility ([2]; listed as amorphous form) is given as “greater than 35%”.
For OC[C@H]1O[C@@](CO)(O[C@H]2O[C@H](CO)[C@@H](O)[C@H](O)[C@H]2O)[C@@H](O)[C@@H]1O [Saccharose], the Sweetness power [3] is given as 1.
For O=C1NS(=O)(=O)c2ccccc21 [Saccharine], the Sweetness power [3] is listed as 300.
In the case of CC1(C)[C@@H](O[C@H]2O[C@H](C(=O)O)[C@@H](O)[C@H](O)[C@H]2O[C@@H]2O[C@H](C(=O)O)[C@@H](O)[C@H](O)[C@H]2O)CC[C@]2(C)[C@H]3C(=O)C=C4[C@@H]5C[C@@](C)(C(=O)O)CC[C@]5(C)CC[C@@]4(C)[C@]3(C)CC[C@@H]12 [Glycyrrhizin], the Sweetness power [3] is given as 50.
In the case of C=C1C[C@@]23CC[C@H]4[C@@](C)(CCC[C@@]4(C)C(=O)O[C@@H]4O[C@H](CO)[C@@H](O)[C@H](O)[C@H]4O)[C@@H]2CC[C@]1(O[C@@H]1O[C@H](CO)[C@@H](O)[C@H](O[C@@H]2O[C@H](CO)[C@@H](O)[C@H](O)[C@H]2O)[C@H]1O[C@@H]1O[C@H](CO)[C@@H](O)[C@H](O)[C@H]1O)C3 [Form 2, Rebaudioside A], the “Rate of dissolution in H2O at 25° C.” value ([1]; grade in words) is given as “Intermediate”, the “Rate of dissolution in H2O at 25° C.” value ([1]; in 5 minutes) is given as “(<30% in 5” and the solubility ([2]; listed as anhydrous form of Rebaudioside A) is given as “up to 30%”. For the same compound, the solubility ([2]; listed as anhydrous form) was “up to 30%”.
For C=C1C[C@@]23CC[C@H]4[C@@](C)(CCC[C@@]4(C)C(=O)O[C@@H]4O[C@H](CO)[C@@H](O)[C@H](O)[C@H]4O)[C@@H]2CC[C@]1(O[C@@H]1O[C@H](CO)[C@@H](O)[C@H](O)[C@H]1O[C@@H]1O[C@H](CO)[C@@H](O)[C@H](O)[C@H]1O)C3 [Stevioside], the Sweetness power [3] is given as 200.
For CC1=CC(=O)NS(=O)(=O)O1 [Acesulfame-K], the Sweetness power [3] is given as 200.
In the case of Thaumatin, the Sweetness power [3] is listed as 3000.
Compound C=C1C[C@@]23CC[C@H]4[C@@](C)(CCC[C@@]4(C)C(=O)O[C@@H]4O[C@H](CO)[C@@H](O)[C@H](O)[C@H]4O)[C@@H]2CC[C@]1(O[C@@H]1O[C@H](CO)[C@@H](O)[C@H](O[C@@H]2O[C@H](CO)[C@@H](O)[C@H](O)[C@H]2O)[C@H]1O[C@@H]1O[C@H](CO)[C@@H](O)[C@H](O)[C@H]1O)C3 [high solubility Rebaudioside A powder, Rebaudioside A] has a dissolution time ([4]; deionized water at room temperature) of 7 min.
In the case of C=C1C[C@@]23CC[C@H]4[C@@](C)(CCC[C@@]4(C)C(=O)O[C@@H]4O[C@H](CO)[C@@H](O)[C@H](O)[C@H]4O)[C@@H]2CC[C@]1(O[C@@H]1O[C@H](CO)[C@@H](O)[C@H](O[C@@H]2O[C@H](CO)[C@@H](O)[C@H](O)[C@H]2O)[C@H]1O[C@@H]1O[C@H](CO)[C@@H](O)[C@H](O)[C@H]1O)C3 [Rebaudioside A], the Sweetness power [3] is listed as 450 and the solubility [4] is listed as 1.6%.
In the case of COc1ccc(CCC(=O)c2c(O)cc(O[C@@H]3O[C@H](CO)[C@@H](O)[C@H](O)[C@H]3O[C@@H]3O[C@@H](C)[C@H](O)[C@@H](O)[C@H]3O)cc2O)cc1O [NHDC, neohesperidin dihydrochalcone], the Sweetness power [3] is listed as 1000.
In the case of COC(=O)[C@H](Cc1ccccc1)NC(=O)[C@@H](N)CC(=O)O [Aspartame] (H-Asp-Phe-OMe), the Sweetness power [3] is given as 200.
For C=C1C[C@@]23CC[C@H]4[C@@](C)(CCC[C@@]4(C)C(=O)O[C@@H]4O[C@H](CO)[C@@H](O)[C@H](O)[C@H]4O)[C@@H]2CC[C@]1(O[C@@H]1O[C@H](CO)[C@@H](O)[C@H](O[C@@H]2O[C@H](CO)[C@@H](O)[C@H](O)[C@H]2O)[C@H]1O[C@@H]1O[C@H](CO)[C@@H](O)[C@H](O)[C@H]1O)C3 [Form 3, Rebaudioside A], the “Rate of dissolution in H2O at 25° C.” value ([1]; grade in words) is listed as “High”, the “Rate of dissolution in H2O at 25° C.” value ([1]; in 5 minutes) is listed as “(>30% in” and the solubility ([2]; listed as solvate form) is listed as “greater than 30%”.
For C[C@@H](NC(=O)[C@@H](N)CC(=O)O)C(=O)NC1C(C)(C)SC1(C)C [Alitame], the Sweetness power [3] is given as 2000.
For C=C1C[C@@]23CC[C@H]4[C@@](C)(CCC[C@@]4(C)C(=O)O[C@@H]4O[C@H](CO)[C@@H](O)[C@H](O)[C@H]4O)[C@@H]2CC[C@]1(O[C@@H]1O[C@H](CO)[C@@H](O)[C@H](O[C@@H]2O[C@H](CO)[C@@H](O)[C@H](O)[C@H]2O)[C@H]1O[C@@H]1O[C@H](CO)[C@@H](O)[C@H](O)[C@H]1O)C3 [Form 1, Rebaudioside A], the “Rate of dissolution in H2O at 25° C.” value ([1]; grade in words) is given as “Very low”, the “Rate of dissolution in H2O at 25° C.” value ([1]; in 60 minutes) is given as “(<0.2% in” and the “solubility (in words)” value ([2]; compared among Rebaudioside A forms) is given as “lowest solubility”. For the same compound, the solubility ([2]; listed as hydrate form) was “less than 0.2%”.
In the case of OC[C@H]1O[C@H](O[C@]2(CCl)O[C@H](CCl)[C@@H](O)[C@@H]2O)[C@H](O)[C@@H](O)[C@H]1Cl [Sucralose], the Sweetness power [3] is listed as 600.
